Patent US6692937B2, “DNA encoding small and intermediate conductance calcium-activated potassium channels” (ICAgen, Incorporated, priority 1997, dated 2004)
Where two headings read alike, the source gives them in different places.

Columns and labels:
Format in all cases: cell-based
hIK1 = molecular target: T1, hIK1 (Homo sapiens, UniProt O15554); experiment: Macroscopic hIK1 currents in macropatches excised from Xenopus oocytes
T1 construct: expressed in transfected cells; host or cells: Xenopus oocytes injected with SP6-transcribed mRNA from vector pBF
Experimental: 3B. Example 3B describes the electrophysiology of the hIK1 channel. All hIK1 channel subunits were subcloned into the oocyte expression vector pBF (unpublished, graciously provided by Dr. B. Fakler) which provides 5′ and 3′ untranslated regions from the Xenopus β-globin gene flanking a polylinker containing multiple restriction sites. In vitro mRNAs were generated using SP6 polymerase (GibcoBRL); following synthesis, mRNAs were evaluated spectrophotometrically and by ethidium bromide staining after agarose gel electrophoresis.
As described above, Xenopus care and handling were in accordance with the highest standards of institutional guidelines. Frogs underwent no more than two surgeries, separated by at least three weeks, and All surgeries were performed using well established techniques. Frogs were anesthetized with an aerated solution of 3-aminobenzoic acid ethyl ester. Oocytes were studied 2-14 days after injection with 0.5-5 ng of mRNA.
Inside-out macropatches were excised into an intracellular solution containing 116 mM K-gluconate. 4 mM KCl, 10 mM HEPES (pH 7.2, adjusted with KOH) supplemented with CaCl2 to give free calcium concentration of 5 μM; the proportion of calcium binding to gluconate was determined by a computer program (CaBuf assuming a stability constant for Ca^2+ gluconate of 15.9M^−1 (Dawson et al., 1969). To obtain Ca^2+ concentrations below 1 μM, 1 mM EGTA was added to the bath solution and CaCl2 was added as calculated using the CaBuf program and published stability constants (Fabiato and Fabiato, 1979). Electrodes were pulled from thin-wailed, filamented borosilicate glass (World Precision Instruments) and filled with 116 mM K-gluconate, 4 mM KCl, 10 mM HEPES (pH 7.2). Electrode resistance was typically 2-5 MΩ. For outside-out macropatches, the solutions were reversed. Membrane patches were voltage clamped using an Axopatch 200A amplifier (Axon Instruments). The data were low-pass Bessel filtered at 1 kH and acquired using Pulse software (HEKA Electronik). Analysis was performed using Pulse, Kaleidagraph (Abelbeck), or IGOR (Wavemetrics) software. Unless otherwise stated all experiments were performed at room temperature from a holding potential of 0 mV. 2.5 second voltage ramps from −100 to either 60 or 100 mV were acquired at a sampling frequency of 500 Hz. Values were expressed as mean±SD. Statistical differences were determined using an unpaired t-test; p values <0.05 were considered significant.
(§1) To compare hIK1 and SK2, normalized current was plotted as a function of Ca^2+ concentration, and the data points fitted with the Hill equation.

rSK2 = molecular target: T2, rSK2 (Rattus norvegicus, UniProt P70604); experiment: Macroscopic currents in inside-out macropatches excised from Xenopus oocytes expressing rSK2
T2 construct: expressed in transfected cells; host or cells: Xenopus oocytes injected with in vitro transcribed mRNA
T2 sequence (P70604 whole entry): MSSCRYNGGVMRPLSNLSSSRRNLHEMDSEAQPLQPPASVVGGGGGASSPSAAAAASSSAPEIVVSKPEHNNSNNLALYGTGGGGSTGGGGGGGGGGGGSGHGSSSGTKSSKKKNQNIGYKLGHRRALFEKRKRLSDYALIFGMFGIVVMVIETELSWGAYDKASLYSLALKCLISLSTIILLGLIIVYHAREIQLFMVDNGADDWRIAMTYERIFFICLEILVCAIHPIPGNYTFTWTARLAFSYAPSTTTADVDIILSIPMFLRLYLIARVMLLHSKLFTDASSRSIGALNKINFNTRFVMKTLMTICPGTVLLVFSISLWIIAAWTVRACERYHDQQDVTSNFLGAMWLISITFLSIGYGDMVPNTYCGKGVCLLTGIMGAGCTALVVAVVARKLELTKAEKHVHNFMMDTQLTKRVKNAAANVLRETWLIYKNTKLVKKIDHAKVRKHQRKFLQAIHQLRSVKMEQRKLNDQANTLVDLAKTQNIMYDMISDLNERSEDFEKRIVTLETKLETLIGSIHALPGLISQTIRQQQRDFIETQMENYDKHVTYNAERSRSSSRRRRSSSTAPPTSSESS
Excerpt: (§2) Electrode resistance was typically 2-5 MΩ. Membrane patches were voltage clamped using an Axopatch 200A amplifier (Axon Instruments).
as §1

hSK1 = molecular target: T3, hSK1 (Homo sapiens, UniProt Q92952); experiment: Macroscopic currents in inside-out macropatches excised from Xenopus oocytes expressing hSK1
T3 construct: expressed in transfected cells; host or cells: Xenopus oocytes injected with in vitro transcribed mRNA
T3 sequence (Q92952 other isoform, or with tags, fused parts or gaps): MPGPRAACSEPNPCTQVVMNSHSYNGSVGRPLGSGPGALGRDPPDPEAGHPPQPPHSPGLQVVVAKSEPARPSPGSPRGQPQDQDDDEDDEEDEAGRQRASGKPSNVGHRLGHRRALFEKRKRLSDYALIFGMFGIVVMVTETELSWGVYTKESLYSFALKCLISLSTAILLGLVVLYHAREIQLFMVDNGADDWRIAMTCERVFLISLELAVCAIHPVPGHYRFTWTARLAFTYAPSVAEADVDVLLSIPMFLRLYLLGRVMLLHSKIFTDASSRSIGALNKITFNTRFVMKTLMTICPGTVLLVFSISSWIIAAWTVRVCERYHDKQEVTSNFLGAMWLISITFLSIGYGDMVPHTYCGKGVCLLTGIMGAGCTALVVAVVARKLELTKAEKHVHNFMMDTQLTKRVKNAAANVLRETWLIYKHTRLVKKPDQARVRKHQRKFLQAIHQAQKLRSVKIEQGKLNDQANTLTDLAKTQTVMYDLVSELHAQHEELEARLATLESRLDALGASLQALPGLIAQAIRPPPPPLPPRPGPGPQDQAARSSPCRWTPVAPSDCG
Excerpt: as §2

## CC(C)C[C@@H]1NC(=O)[C@H](C)NC(=O)[C@H]([C@@H](C)O)NC(=O)[C@H](CCC(=O)O)NC(=O)[C@@H]2CCCN2C(=O)[C@H](C)NC(=O)[C@H](CCCCN)NC(=O)[C@@H]2CSSC[C@@H](C(=O)N[C@@H](CCC(N)=O)C(=O)N[C@@H](CCC(N)=O)C(=O)N[C@@H](Cc3cnc[nH]3)C(N)=O)NC(=O)[C@H](CCCNC(=N)N)NC(=O)[C@H](CCCNC(=N)N)NC(=O)[C@H](C)NC(=O)[C@H](CSSC[C@H](N)C(=O)N[C@@H](CC(N)=O)C(=O)N2)NC1=O [apamin]
hIK1; 100 nM apamin
  reduction of hIK1 currents: 12±5%

## [Ca+2] [calcium]
rSK2; Hill fit, 8 patches
  Hill coefficient of calcium dependence, rSK2: 4.81±1.46
rSK2; n=4
  Hill coefficient of Ca2+-dependence, SK2: 3.5±0.4
rSK2; slope conductance at reversal potential versus calcium, Hill fit, 8 patches, read-out: average Kd for calcium, rSK2
  Kd: 630 ± 230 nM
hSK1; Hill fit
  Hill coefficient of calcium dependence, hSK1: 3.90±0.45
hSK1; Hill fit, read-out: Kd for calcium, hSK1
  Kd: 700 ± 60 nM
hIK1; n=7
  Hill coefficient of Ca2+-dependence, hIK1: 1.7±0.3
hIK1; normalized current versus Ca2+ concentration, n=7, read-out: K0.5 (concentration for half-maximal activation), hIK1
  EC50: 320 ± 30 nM

## COc1cc2c3cc1Oc1cc(ccc1O)C[C@@H]1c4c(cc(OC)c(O)c4Oc4ccc(cc4)C[C@@H]3N(C)CC2)CC[N+]1(C)C [dTC, d-tubocurare, reference compound]
rSK2; 5 μM Ca2+, inside-out macropatches, dTC in patch pipette, read-out: Kd for block of rSK2 currents
  Kd: 2400 nM
hSK1; ratio of Kd hSK1 to Kd rSK2
  fold less sensitive, hSK1 versus rSK2: approximately 30 fold
hSK1; read-out: Kd for block of hSK1
  Kd: 76200 nM

## CC(=O)N1CCN(c2ccc(OCC3COC(Cn4ccnc4)(c4ccc(Cl)cc4Cl)O3)cc2)CC1 (stereo not shown) [ketoconazole]
hIK1; 10 μM ketoconazole
  block of hIK1: 24±6%

## iberiotoxin (QFTDVDCSVSKECWSVCKDLFGVDRGKCMGKKCRCYQ) [IBX]
hIK1; 50 nM IBX
  block of hIK1 currents: 15±3%
